No end group written: not given here.
What was measured:
Experiment in all cases: biochemical
Assay type in all cases: binding
HLA-A*0201 (HLA-A2.1) = HLA-A*0201 (HLA-A2.1) (Homo sapiens, UniProt P04439, D140Y/D185E/D98H/E176V/E277Q/G131W/G231S/I119V/I121R/I166T/I218V/L300P/L318F/N151K/N90K/P208A/P217A/Q86G/Q94H/R138H/R169H/T345S)
A*0202 = A*0202 (Homo sapiens, UniProt P04439, D140Y/D185E/D98H/E176V/E277Q/G131W/G231S/I119L/I121R/I166T/I218V/L180W/L300P/L318F/N151K/N90K/P208A/P217A/Q67R/Q86G/Q94H/R138H/R169H/T345S)
A*0203 = A*0203 (Homo sapiens, UniProt P04439, A173T/D140Y/D185E/D98H/E277Q/G131W/G231S/I119V/I121R/I166T/I218V/L180W/L300P/L318F/N151K/N90K/P208A/P217A/Q86G/Q94H/R138H/R169H/T345S)
A*0206 = A*0206 (Homo sapiens, UniProt P04439, D140Y/D185E/D98H/E176V/E277Q/F33Y/G131W/G231S/I119V/I121R/I166T/I218V/L300P/L318F/N151K/N90K/P208A/P217A/Q86G/Q94H/R138H/R169H/T345S)
A*6802 = A*6802 (Homo sapiens, UniProt P04439, A269V/D140Y/D185E/E176V/E277Q/E87N/F33Y/G231S/I121R/I166T/I218V/L180W/L300P/L318F/N151K/P208A/P217A/Q86R/R138H/R169H/S129P/T345S/V36M)

Row | Sequence | IC50 (HLA-A*0201 (HLA-A2.1)) [nM] | IC50 (A*0202) [nM] | IC50 (A*0203) [nM] | IC50 (A*0206) [nM] | IC50 (A*6802) [nM]
1 | SLNRSDPVT [Peptide 9013.0099] | > 20000 | 121 | 2490 | > 20000 | > 20000
2 | SLNRSDPVTL [Peptide 9013.0233] | 16200 | 59 | 80 | > 20000 | > 20000
3 | SLQDSQFEL [Peptide 1578.35] | 141 | 1.4 | 165 | 160 | 8850
4 | SLYTHLQCL [Peptide 1578.20] | 224 | 2.6 | 11 | 540 | 8470
5 | TAKLTIESV [Peptide 9013.0009] | > 20000 | 480 | 216 | 10700 | 243
6 | TILQQLLFI [Peptide 1525.26] | 95 | 2790 | 367 | 91 | 7030
7 | TLELFIPNITV [Peptide 9013.0299] | 161 | 502 | 15800 | 2330 | 1040
8 | TLELFISNI [Peptide 9013.0082] | 2460 | 170 | 1700 | 3850 | 949
9 | TLFNVTRNDV [Peptide 9013.0230] | 1480 | 69 | 25 | 4840 | > 20000
10 | TLKLTIEST [Peptide 9013.0010] | 18300 | 80 | 24 | > 20000 | > 20000
11 | TLNNSGSYT [Peptide 9013.0065] | > 20000 | 237 | 233 | > 20000 | > 20000
12 | TLQATPGPA [Peptide 9013.0028] | 19400 | 1980 | 29 | > 20000 | > 20000
13 | TLQDVSLEV [Peptide 1578.45] | 701 | 18 | 26 | 2070 | 2680
14 | TLTTITVYA [Peptide 9013.0069] | 14 | 0.75 | 2.6 | 666 | 5
15 | TVNNSGSYV [Peptide 9013.0064] | 16600 | 310 | 39 | > 20000 | 44
16 | TVTTITVYV [Peptide 9013.0068] | 102 | 12 | 58 | 95 | 3
17 | VIKSDLVNEEV [Peptide 9013.0278] | > 20000 | 57 | 1730 | > 20000 | > 20000
18 | VLAEAMAAA [Peptide 1516.12] | 17 | 1.9 | 3.2 | 16 | 639
19 | VLAEAMGQV [Peptide 1539.05] | 55 | 1.7 | 3.2 | 75 | 168
20 | VLAEAMSHT [Peptide 1539.06] | 243 | 16 | 7.5 | 975 | > 20000
21 | VLAEAMSHV [Peptide 1516.08] | 29 | 1.9 | 5.5 | 89 | 304
22 | VLAEAMSRV [Peptide 1516.10] | 40 | 2.6 | 3.7 | 75 | 487
23 | VLEGKEVLLLV [Peptide 9013.0273] | 1840 | 32 | 272 | 4610 | > 20000
24 | VLKSDLVNEEA [Peptide 9013.0279] | > 20000 | 14 | 3420 | > 20000 | > 20000
25 | VQWAFDNEL [Peptide 86.0182] | 3230 | 319 | 449 | 256 | > 20000
26 | YLCGIQNSVSA [Peptide 9013.0338] | 208 | 21 | 180 | 513 | 9160
27 | YLWWVNNQSV [Peptide 9013.0197] | 8.9 | 1.2 | 4.2 | 65 | 17
